Experimental data: patent publication US20230391748A1, “BICYCLIC INHIBITORS OF IRAK” (priority 2022, published 2023)
Like-named read-outs stand apart in the source and are kept apart here. Values belong to the compound of their own block, whether it stands above or below them.

Assays:
[1] = target: IRAK4 (Homo sapiens (Human), UniProt Q9NWZ3); experiment: IRAK4 ADP-Glo Assay; assay type: biochemical; conditions: MBP substrate
Protocol: The ADP-Glo™ reagents were thawed at ambient temperature. The Kinase Detection Reagent was prepared by mixing kinase detection buffer with the lyophilized kinase detection substrate, and set aside.
A stock volume of 5× Reaction Kinase Buffer was made with a final concentration of 100 mM MgCl2, 200 mM Tris-HCl, and 0.5 mg/ml of BSA, in distilled H2O with a final pH7.4. A 2× working stock volume of Reaction Kinase Buffer was made containing a final concentration of 100 μM DTT.
The components of IRAK4 Enzyme were thawed on ice. Diluted IRAK4 in 1× Kinase Reaction Buffer (diluted from 2× buffer) was prepared at 5.0 ng/μl.
Then diluted 1:5 in 2× Reaction Buffer in a 96 well plate. 1.0 μl was transferred to a 384 well plate in duplicate. […] 1 μl of 1 mg/ml stock solution of MBP substrate was added NOTE: MBP can be combined with ATP mix with equal volume and then added at 2 μl/well. Final reaction volume was 5 μl.
The plate was centrifuged and the reaction mixture was incubated at room temperature for 60 minutes or at 30° C. for 30 minutes.
The reaction was terminated and the remaining ATP was depleted by adding 5 μl of ADP-Glo™ Reagent. The 384-well plate was centrifuged and then the reaction mixture was incubated for another 40 minutes at ambient temperature.
10 μl of the Kinase Detection Reagent was added. The plate was centrifuged and then the reaction mixture was incubated for another 30 minutes at ambient temperature.
The 384-well reaction plate was read using the WALLAC plate reader (Luminescence 0.1s).

[2] = test system: IL23p19 in THP-1 Cells; experiment: LPS Induced IL23p19 in THP-1 Cells (with IFNγ Primed) Assay; assay type: cell-based; conditions: Homo sapiens
Protocol: LPS Induced IL23p19 in THP-1 Cells (with IFNγ Primed) Assay
On day 1, 50K/well THP-1 cells were seeded and primed with IFNγ (50 ng/mL) in 384-well plates for about 18 hours in RPMI media with 10% FBS. […] 50 μL/well 2× compound was added to 50 μL/well THP-1 cells (with IFNγ primed) in duplicate in 384 well tissue culture plates. […] Day 3, after stimulation for 18 hours at 37° C., 5% CO2, the assay plate was centrifuged and 70 μL/well supernatant was harvested. IL-23p19 protein in 70 µL/well of supernatant was measured by sandwich ELISA, and 25 μl/well Cell Titer Glo reagent was added to the remaining cells to measure compound toxicity.
Maxisorp immuno ELISA plates were pre-coated with 25 μL/well of anti-IL-23p19 capture antibody (2.5 ug/mL) in PBS overnight at room temperature. […] 25 μL/well of biotin labeled anti-IL-12(p40/p70) detection antibody (100 ng/mL) in PBS with 1% BSA was added and the plates were incubated at room temperature for 2 hours with shaking. […] The plates were read with a luminometer, and the chemiluminescence values were entered into Athena (Rigel) for curve fitting, EC50 calculation, and database storage.

[3] = test system: TNF-α in human PBMCs; experiment: R848-induced TNF-α in human PBMCs Assay; assay type: cell-based; conditions: PBMC
Protocol: R848-induced TNF-α in human PBMCs Assay
100 μL/well PBMCs (200K/well) were seeded in 96-well flat-bottom tissue culture plates. […] 100 μL/well 2× compound was added to the PBMC in the tissue culture plates. […] The cells were stimulated with R848 for an additional 4 hours at 37° C., 5% CO2. The supernatant (100 μl/well) was harvested to measure TNF-α by ELISA. […] The chemiluminescence values were entered into Athena (Rigel) for curve fitting, EC50 calculation, and database storage.
(§1) TNF-α ELISA was performed according to the vendor protocol, using 96 Well Flat-Bottom, MaxiSorp Black Immuno plates and 100 μL/well of supernatant. The plates were developed using 100 μL/well of Super Signal ELISA Pico Chemiluminescent Substrate. The plates were read with a luminometer, and the chemiluminescence values were entered into Athena (Rigel) for curve fitting, EC50 calculation, and database storage.

[4] = test system: TNF-α in Human Primary Monocyte-Derived Dendritic Cells; experiment: Gardiquimod-Induced TNF-α in Human Primary Monocyte-Derived Dendritic Cells; assay type: cell-based; conditions: Dendritic cell, IFNγ-primed monocyte-derived dendritic cells, 4 μg/ml Gardiquimod, 6 hours, TNF-α ELISA, read-out: TNFα (DC, GARD) (IC50)
Protocol: Gardiquimod-Induced TNF-α in Human Primary Monocyte-Derived Dendritic Cells
After 2 hours, the media including floating cells was carefully removed and 12 ml of fresh RPMI media (10% FBS) containing GM-CSF (100 ng/ml) and IL-4 (20 ng/ml) were added to the adherent monocytes. The monocytes were allowed to differentiate for 7 days at 37° C., 5% CO2 for 7 days, supplementing with fresh GM-CSF and IL-4 after 3 days. The differentiated dendritic cells (DC) were harvested by centrifugation (1200 rpm/5 min). The DCs were primed at 37° C., 5% CO2 for 24 hours with 50 ng/ml IFN-γ (1000 U/ml) at 50K/well in 100 μl/well of fresh RPMI media (10% FBS) in a white clear bottom 96 well plate.
The primed DCs were pre-incubated with test compound for 1 hour at 37° C., 5% CO2 by adding 100 μl of RPMI media containing 2× concentrated test compound per well (0.5% final DMSO concentration).
DCs were stimulated with Gardiquimod (10 μl per well of 20× concentrated Gardiquimod solution in RPMI media to give a final concentration of 4 μg/ml) at 37° C., 5% CO2 for an additional 6 hours. The supernatant (100 μl/well) was harvested to measure TNF-α by ELISA. […] The chemiluminescence values were entered into Athena (Rigel) for curve fitting, EC50 calculation, and database storage.
as §1

[5] = THP-1, 18 h, read-out: IL23 (THP, LPS) (IC50, μM)
[6] = Homo sapiens, 4 h, read-out: TNFα (PBMC, R848) (IC50, μM)

IRAK4, sequence (Q9NWZ3 whole entry): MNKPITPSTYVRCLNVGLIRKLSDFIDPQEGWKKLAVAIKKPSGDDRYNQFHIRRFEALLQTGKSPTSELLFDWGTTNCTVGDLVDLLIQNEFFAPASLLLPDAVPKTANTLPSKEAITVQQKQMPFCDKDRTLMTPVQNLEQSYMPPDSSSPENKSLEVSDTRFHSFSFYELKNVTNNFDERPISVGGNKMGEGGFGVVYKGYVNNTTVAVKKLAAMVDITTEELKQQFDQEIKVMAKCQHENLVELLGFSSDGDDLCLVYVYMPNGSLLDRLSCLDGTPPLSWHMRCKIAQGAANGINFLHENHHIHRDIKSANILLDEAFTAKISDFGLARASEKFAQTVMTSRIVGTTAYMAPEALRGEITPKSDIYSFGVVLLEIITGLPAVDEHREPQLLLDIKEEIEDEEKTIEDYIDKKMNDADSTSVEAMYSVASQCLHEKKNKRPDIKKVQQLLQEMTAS

SMILES: CC(C)Oc1cc2c(O[C@@H]3CCCN(C(=O)CC#N)C3)ncc(-c3cnn(C4CCC4)c3)c2cc1C(N)=O [Compound I-115, (R)-1-((1-(2-cyanoacetyl)piperidin-3-yl)oxy)-4-(1-cyclobutyl-1H-pyrazol-4-yl)-7-isopropoxyisoquinoline-6-carboxamide]
IC50 [1]: 13.2 nM | IC50 [2, 5]: 0.911 µM | IC50 [3, 6]: 0.443 µM | IC50 [4]: 450 nM

SMILES: CCO[C@H]1CC[C@@H](C#Cc2cnc(OC[C@@H]3CC(F)(F)C(=O)N3)c3cc(OC(C)C)c(C(N)=O)cc23)CC1 [Compound I-59, 1-(((S)-4,4-difluoro-5-oxopyrrolidin-2-yl)methoxy)-4-((cis-4-ethoxycyclohexyl)ethynyl)-7-isopropoxyisoquinoline-6-carboxamide]
IC50 [1]: 3.9 nM | IC50 [2, 5]: 0.0466 µM | IC50 [3, 6]: 0.0472 µM | IC50 [4]: 32 nM

SMILES: CC(C)Oc1cc2c(OC[C@@H]3CC(F)(F)C(=O)N3)ncc(C#C[C@H]3CC[C@@](C)(O)CC3)c2cc1C(N)=O [Compound I-61, 1-(((S)-4,4-difluoro-5-oxopyrrolidin-2-yl)methoxy)-4-(((1s,4R)-4-hydroxy-4-methylcyclohexyl)ethynyl)-7-isopropoxyisoquinoline-6-carboxamide]
IC50 [1]: 8.8 nM | IC50 [2, 5]: 0.102 µM | IC50 [3, 6]: 0.0807 µM | IC50 [4]: 13 nM

SMILES: CC(C)Oc1cc2c(O[C@@H]3CCCN(C(=O)CC#N)C3)ncc(-c3cnn(C4CCNCC4)c3)c2cc1C(N)=O [Compound I-122, (R)-1-((1-(2-cyanoacetyl)piperidin-3-yl)oxy)-7-isopropoxy-4-(1-(piperidin-4-yl)-1H-pyrazol-4-yl)isoquinoline-6-carboxamide]
IC50 [1]: 24 nM | IC50 [3, 6]: 2.16 µM | IC50 [4]: 1000 nM

SMILES: CC(C)Oc1cc2c(OC[C@@H]3CC(F)(F)C(=O)N3)ncc(C#CC3CN(C)C3)c2cc1C(N)=O [Compound I-64, (S)-1-((4,4-difluoro-5-oxopyrrolidin-2-yl)methoxy)-7-isopropoxy-4-((1-methylazetidin-3-yl)ethynyl)isoquinoline-6-carboxamide]
IC50 [1]: 3.6 nM | IC50 [3, 6]: 0.0215 µM | IC50 [4]: 28.6 nM

SMILES: CC(C)Oc1cc2c(O[C@@H]3CCCN(C(=O)CC#N)C3)ncc(C#CC3(O)CCNCC3)c2cc1C(N)=O [Compound I-93, (R)-1-((1-(2-cyanoacetyl)piperidin-3-yl)oxy)-4-((4-hydroxypiperidin-4-yl)ethynyl)-7-isopropoxyisoquinoline-6-carboxamide]
IC50 [1]: 23 nM

SMILES: CC(C)Oc1cc2c(O[C@@H]3CCCN(C(=O)OC(C)(C)C)C3)ncc(-c3cnn(C4CC4)c3)c2cc1C(N)=O [Compound I-107, tert-butyl (R)-3-((6-carbamoyl-4-(1-cyclopropyl-1H-pyrazol-4-yl)-7-isopropoxyisoquinolin-1-yl)oxy)piperidine-1-carboxylate]
IC50 ([2]; IFNγ-primed THP-1 cells, 1 μg/mL LPS, 18 hours, IL-23p19 ELISA, read-out: IL23 (THP, LPS) (IC50)): 103 µM | IC50 ([3]; human PBMCs, 65 ng/mL R848, 4 hours, TNF-α ELISA, read-out: TNFα (PBMC, R848) (IC50)): 38.2 µM

SMILES: CC[C@@H]1[C@H](F)C(=O)N[C@@H]1COc1ncc(C#CC2CCOCC2)c2cc(C(N)=O)c(OC(C)C)cc12 [Compound I-79, 1-(((2S,3S,4S)-3-ethyl-4-fluoro-5-oxopyrrolidin-2-yl)methoxy)-7-isopropoxy-4-((tetrahydro-2H-pyran-4-yl)ethynyl)isoquinoline-6-carboxamide]
IC50 [1]: 18.1 nM | IC50 [2, 5]: 0.0072 µM

SMILES: CCO[C@H]1CC[C@H](C#Cc2cnc(OC[C@H]3NC(=O)[C@@H](F)[C@H]3CC)c3cc(OC(C)C)c(C(N)=O)cc23)CC1 [Compound I-80, 4-(((1r,4S)-4-ethoxycyclohexyl)ethynyl)-1-(((2S,3S,4S)-3-ethyl-4-fluoro-5-oxopyrrolidin-2-yl)methoxy)-7-isopropoxyisoquinoline-6-carboxamide]
IC50 [1]: 390 nM | IC50 [2, 5]: 0.0105 µM

SMILES: CC(C)Oc1cc2c(O[C@@H]3CCCN(C(=O)CC#N)C3)ncc(C#CC3(O)CCN(C)CC3)c2cc1C(N)=O [Compound I-94, (R)-1-((1-(2-cyanoacetyl)piperidin-3-yl)oxy)-4-((4-hydroxy-1-methylpiperidin-4-yl)ethynyl)-7-isopropoxyisoquinoline-6-carboxamide]
IC50 [1]: 56.8 nM | IC50 [2, 5]: 18.8 µM | IC50 [3, 6]: 8.08 µM

IC50 [2, 5]: 4.57 µM | IC50 [4]: 927 nM
SMILES: CC(C)Oc1cc2c(OC[C@@H]3CC(F)(F)C(=O)N3)ncc(C#CC3(O)CCN(C(=O)OC(C)(C)C)CC3)c2cc1C(N)=O [Compound I-52, tert-butyl (S)-4-((6-carbamoyl-1-((4,4-difluoro-5-oxopyrrolidin-2-yl)methoxy)-7-isopropoxyisoquinolin-4-yl)ethynyl)-4-hydroxypiperidine-1-carboxylate]
IC50 [3, 6]: 0.338 µM

SMILES: CCO[C@H]1CC[C@@H](C#Cc2cnc(OC[C@H]3NC(=O)[C@@H](F)[C@H]3CC)c3cc(OC(C)C)c(C(N)=O)cc23)CC1 [Compound I-81, 4-(((1s,4R)-4-ethoxycyclohexyl)ethynyl)-1-(((2S,3S,4S)-3-ethyl-4-fluoro-5-oxopyrrolidin-2-yl)methoxy)-7-isopropoxyisoquinoline-6-carboxamide]
IC50 [1]: 463 nM | IC50 [2, 5]: 0.0163 µM

IC50 [2, 5]: 1.96 µM | IC50 [4]: 4860 nM
SMILES: CC(C)Oc1cc2c(O[C@@H]3CCCNC3)ncc(C#CC3(O)CCCC3)c2cc1C(N)=O [Compound I-85, (R)-4-((1-hydroxycyclopentyl)ethynyl)-7-isopropoxy-1-(piperidin-3-yloxy)isoquinoline-6-carboxamide]
IC50 [3, 6]: 2.08 µM

SMILES: CC(C)Oc1cc2c(OC[C@@H]3CCC(=O)N3)ncc(C#CC3CCN(C(C)C)CC3)c2cc1C(N)=O [Compound I-19, (S)-7-isopropoxy-4-((1-isopropylpiperidin-4-yl)ethynyl)-1-((5-oxopyrrolidin-2-yl)methoxy)isoquinoline-6-carboxamide]
IC50 [1]: 6.7 nM | IC50 [2, 5]: 0.124 µM | IC50 [4]: 618 nM

SMILES: CC(C)Oc1cc2c(OC[C@@H]3CCC(=O)N3)ncc(C#CC3(O)CCN(C)CC3)c2cc1C(N)=O [Compound I-14, (S)-4-((4-hydroxy-1-methylpiperidin-4-yl)ethynyl)-7-isopropoxy-1-((5-oxopyrrolidin-2-yl)methoxy)isoquinoline-6-carboxamide]
IC50 [1]: 5.4 nM | IC50 [3, 6]: 3.93 µM | IC50 [4]: 7870 nM
